Source: patent publication US20050074879A1, “Antisense oligonucleotide modulation of STAT3 expression” (priority 2000, published 2005)

What was measured:
Type in all cases: cell-based
Human STAT3 mRNA [1] = experiment: Human STAT3 mRNA dose response in T-24 cells, real-time PCR with PPS 2033 (Table 19); conditions: 16 hours, − decrease, + increase relative to untreated control
Procedure: The dose-response was repeated in T-24 cells and gene target quantities were measured using a different primer-probe set, called PPS 2033 herein. PPS 2033 comprises probes and primers to human STAT3 were designed to hybridize to a human STAT3 sequence, using published sequence information (incorporated herein as SEQ ID NO: XXX). For PPS 2033 the PCR primers were: forward primer: GAGGCCCGCCCAACA (SEQ ID NO: 397) reverse primer: […] (SEQ ID NO: 398) and the PCR probe was: FAM-CTGCCTAGATCGGC-TAMRA (SEQ ID NO: 399) where FAM is the fluorescent reporter dye and TAMRA is the quencher dye. Gene target quantities obtained by real time RT-PCR are normalized by quantifying total RNA using RiboGreen™ (Molecular Probes, Inc. Eugene, Oreg.). Control oligonucleotides used were ISIS 129695 (SEQ ID NO: 391), ISIS 129694 (SEQ ID NO: 392), ISIS 129690 (SEQ ID NO: 393), ISIS 129686 (SEQ ID NO: 394), ISIS 116847 (SEQ ID NO: 395) and ISIS 113529 (SEQ ID NO: 396).
(§1) T-24 cells were treated with 18.75, 37.5, 75, or 150 nM of oligonucleotide mixed with 3 ug/mL LIPOFECTIN per 100 nM oligonucleotide as described by other examples herein. Untreated cells served as controls. Following 16 hours of treatment, RNA was prepared from cells for subsequent real-time PCR analysis.
Human STAT3 mRNA expression levels were quantitated by real-time PCR using primer probe set PPS 2033 and gene target quantities were normalized using Ribogreen as described in other examples herein. A “−” or “+” designation indicates a decrease or increase of STAT 3 mRNA expression, respectively, relative to untreated control cells.

Human STAT3 mRNA [2] = experiment: Human STAT3 mRNA dose response in A549 cells, real-time PCR with PPS 199 (Table 20); conditions: 16 hours, LIPOFECTIN, − decrease, + increase relative to untreated control cells
Procedure: as §1, with “An additional dose-response experiment was preformed in A549 cells. A549” for “T-24”, “herein. Control oligonucleotides used were ISIS 129686 (SEQ ID NO: 394) and ISIS 129690 (SEQ ID NO: 393).” for “herein.”
Human STAT3 mRNA expression levels were quantitated by real-time PCR using primer probe set PPS 199 and gene target quantities were normalized using Ribogreen as described in other examples herein. A “−” or “+” designation in the dose response results indicates a decrease or increase of STAT 3 mRNA expression, respectively, relative to untreated control cells.

Human STAT3 mRNA [3] = experiment: Human STAT3 mRNA dose response in T-24 cells, real-time PCR with PPS 199 (Table 18); conditions: 16 hours, − decrease, + increase relative to untreated control
Text: The transitional cell bladder carcinoma cell line T-24 was obtained from the American Type Culture Collection (ATCC) (Manassas, Va.). T-24 cells were routinely cultured in complete McCoy's 5A basal media (Gibco/Life Technologies, Gaithersburg, Md.) supplemented with 10% fetal calf serum (Gibco/Life Technologies, Gaithersburg, Md.), penicillin 100 units per mL, and streptomycin 100 micrograms per mL (Gibco/Life Technologies, Gaithersburg, Md.). Cells were routinely passaged by trypsinization and dilution when they reached 90% confluence. Cells were seeded into 96-well plates (Falcon-Primaria #3872) at a density of 7000 cells/well for use in RT-PCR analysis.
Control oligonucleotides used were ISIS 129695 ([…], SEQ ID NO: 391), ISIS 129694 ([…] SEQ ID NO: 392), ISIS 129690 ([…] SEQ ID NO: 393), ISIS 129686 ([…] SEQ ID NO: 394), ISIS 116847 ([…], SEQ ID NO: 395) and ISIS 113529 ([…] SEQ ID NO: 396). These are universal scrambled control oligonucleotides.
as §1
Human STAT3 mRNA expression levels were quantitated by real-time PCR using primer probe set PPS 199 and gene target quantities were normalized using Ribogreen as described in other examples herein. A “−” or “+” designation indicates a decrease or increase of STAT 3 mRNA expression, respectively, relative to untreated control cells.

Human STAT3 mRNA [4] = experiment: STAT3 mRNA in A549 cells treated with dsRNAs (duplex antisense compounds), real-time PCR PPS 199 (Table 22); conditions: treated 4 hours, harvested 16 hours later, − decrease, + increase vs untreated control
Procedure: When cells reached 80% confluency, they are treated with duplexed antisense compounds of the invention. For cells grown in 96-well plates, wells are washed once with […] OPTI-MEM-1 reduced-serum medium (Gibco BRL) and then treated with 130 μL of OPTI-MEM-1 containing 12 μg/mL LIPOFECTIN (Gibco BRL) and the desired duplex antisense compound at a final concentration of 200 nM (a ratio of 6 μg/mL LIPOFECTIN per 100 nM duplex antisense compound). After 5 hours of treatment, the medium is replaced with fresh medium. Cells are harvested 16 hours after treatment, at which time RNA is isolated and target reduction measured by RT-PCR.
The compounds in Table 21 were tested for their effects on human STAT3 expression in A549 cells. ISIS 330249 targets the same site as the antisense oligonucleotid ISIS 106734 (SEQ ID NO: 45) and ISIS 330247 targets the same site as the antisense oligonucleotide ISIS 113176 (SEQ ID NO: 115); thus, ISIS 106734 and ISIS 113176 were also tested. A549 cells were treated with oligonucleotide mixed with LIPOFECTIN (Invitrogen Corporation, Carlsbad, Calif.) as described herein. The control oligonucleotide used was ISIS 129698 ([…], SEQ ID NO: 402). Cells were treated with oligonucleotide for 4 hours and harvested an additional 16 hours later. Untreated cells served as a control.
Human STAT3 mRNA expression levels were quantitated by real-time PCR using primer probe set PPS 199 and gene target quantities were normalized using Ribogreen as described in other examples herein. A “−” or “+” designation indicates a decrease or increase of STAT 3 mRNA expression, respectively, relative to untreated control cells. Where present, “N.D.” indicates not determined.

Mouse B16 melanoma cells = experiment: Cell number of B16 melanoma cells after antisense treatment; conditions: 24 hours after transfection
Procedure: Mouse B16 melanoma cells were grown in RPMI 1640 (Life Technologies, Inc., Grand Island, N.Y.) medium supplemented with 10% fetal bovine serum, 2 mM L-glutamine, 1 mM sodium pyruvate, 1% MEM nonessential amino acids and 100 IU/ml penicillin/streptomycin.
Cells were treated with ISIS 17152, targeted to mouse STAT3, or the 3-base mismatch control, ISIS 28084 ([…]; SEQ ID NO: 151). Cells were transfected with oligonucleotide using LipofectAMINE PLUSJ reagent (GibcoBRL). Oligonucleotide was pre-complexed with LipofectAMINE PLUSJ by adding the oligonucleotide to 100 μl serum-free RPMI 1640 medium, then 6 μl LipofectAMINE PLUSJ reagent was added, the sample was mixed well and incubated for 15 minutes at room temperature. An additional 4 μl of LipofectAMINE PLUSJ reagent was diluted to 100 μl in serum-free RPMI. This diluted LipofectAMINE PLUSJ was mixed with the pre-complexed oligonucleotide/LipofectAMINE PLUSJ mixture and incubated for 15 minutes at room temperature. 800 μl of serum-free RPMI 1640 was added, and the resulting oligonucleotide-LipofectAMINE PLUSJ-medium mixture (approximately 1 ml) was added to cells in a 6-well plate. After 3 hours incubation, 1 ml of RPMI 1640 supplemened with 20% fetal bovine serum was added. Oligonucleotide concentrations were 200 nM or 300 nM.
24 hours after transfection, cells were counted to determine the effect of antisense treatment on cell death. Cells were harvested at 24 hours post transfection for western blot analysis and at 48 hours post-transfection for Annexin-V staining for apoptosis.

Row | Substance | Percent change of STAT3 expression using PPS 2033 (Human STAT3 mRNA [1]; 18.75 nM oligonucleotide) | Percent change of STAT3 expression using PPS 2033 (Human STAT3 mRNA [1]; 37.5 nM oligonucleotide) | Percent change of STAT3 expression using PPS 2033 (Human STAT3 mRNA [1]; 75 nM oligonucleotide) | Percent change of STAT3 expression using PPS 2033 (Human STAT3 mRNA [1]; 150 nM oligonucleotide) | Percent change of STAT3 expression in A549 cells using PPS 199 (Human STAT3 mRNA [2]; 18.75 nM oligonucleotide) | Percent change of STAT3 expression in A549 cells using PPS 199 (Human STAT3 mRNA [2]; 37.5 nM oligonucleotide) | Percent change of STAT3 expression in A549 cells using PPS 199 (Human STAT3 mRNA [2]; 75 nM oligonucleotide) | Percent change of STAT3 expression in A549 cells using PPS 199 (Human STAT3 mRNA [2]; 150 nM oligonucleotide) | Percent change of STAT3 expression using PPS 199 (Human STAT3 mRNA [3]; 18.75 nM oligonucleotide) | Percent change of STAT3 expression using PPS 199 (Human STAT3 mRNA [3]; 37.5 nM oligonucleotide) | Percent change of STAT3 expression using PPS 199 (Human STAT3 mRNA [3]; 75 nM oligonucleotide) | Percent change of STAT3 expression using PPS 199 (Human STAT3 mRNA [3]; 150 nM oligonucleotide) | Percent change in STAT3 mRNA expression in A549 cells by duplex antisense compounds (Human STAT3 mRNA [4]; 50 nM oligonucleotide) | Percent change in STAT3 mRNA expression in A549 cells by duplex antisense compounds (Human STAT3 mRNA [4]; 100 nM oligonucleotide) | Percent change in STAT3 mRNA expression in A549 cells by duplex antisense compounds (Human STAT3 mRNA [4]; 200 nM oligonucleotide) | Percent change in STAT3 mRNA expression in A549 cells by duplex antisense compounds (Human STAT3 mRNA [4]; 400 nM oligonucleotide) | further results
1 | 129686 (antisense CGTTATTAACCTCCGTTGAA; all phosphorothioate, sugars by position and methylation of C not given here; 2'-MOE wings and deoxy gap) [compound 129686] | +20% | +16% | +25% | +9% | +27% | +23% | +22% | +19% | +2% | +1% | −5% | +1% |  |  |  |  | 
2 | 129690 (antisense TTAGAATACGTCGCGTTATG; all phosphorothioate, sugars by position and methylation of C not given here; 2'-MOE wings and deoxy gap) [compound 129690] | +4% | +10% | +8% | +11% | +30% | +27% | +16% | +27% | +2% | +7% | +6% | +8% |  |  |  |  | 
3 | 106734 (CATTCTTGGGATTGTTGGTC; all C 5-methyl, all phosphorothioate, sugars by position not given here; further chemistry not fully specified) [compound 106734] |  |  |  |  | −2% | −16% | −56% | −73% |  |  |  |  | −40% | −56% | −67% | −77% | Percent change in STAT3 mRNA expression in A549 cells by duplex antisense compounds (Human STAT3 mRNA [4]; 12.5 nM oligonucleotide): −5%; Percent change in STAT3 mRNA expression in A549 cells by duplex antisense compounds (Human STAT3 mRNA [4]; 25 nM oligonucleotide): −5%
4 | 129698 (antisense TTTGATCGAGGTTAGCCGTG; listed as DNA, chemistry not given here) [compound 129698] |  |  |  |  |  |  |  |  |  |  |  |  | +41% | +42% | +1% | +22% | 
5 | AAAAAGAGGCCTGATTGCCC (listed as DNA, chemistry not given here) [ISIS 28084, reference compound] |  |  |  |  |  |  |  |  |  |  |  |  |  |  |  |  | cell number (Mouse B16 melanoma cells; 200 nM, Expt 1): 10.2 × 10^5; cell number (Mouse B16 melanoma cells; 200 nM, Expt 2): 5.0 × 10^5; cell number (Mouse B16 melanoma cells; 200 nM, Expt 3): 3.5 × 10^5; cell number (Mouse B16 melanoma cells; 300 nM, Expt 2): 9.1 × 10^5; cell number (Mouse B16 melanoma cells; 300 nM, Expt 3): 3.3 × 10^5
